Common to all, as to format: functional
The subject of experiment [1] is Trypanosoma cruzi. The experiment in a line: In vitro percent inhibition of growth against epimastigote form of Trypanosoma cruzi (Tulahuen strain) at 25 uM.
Experiment [2] concerns the target T1, Glutathione reductase, mitochondrial (Homo sapiens) (UniProt P00390).
T1 sequence (whole entry): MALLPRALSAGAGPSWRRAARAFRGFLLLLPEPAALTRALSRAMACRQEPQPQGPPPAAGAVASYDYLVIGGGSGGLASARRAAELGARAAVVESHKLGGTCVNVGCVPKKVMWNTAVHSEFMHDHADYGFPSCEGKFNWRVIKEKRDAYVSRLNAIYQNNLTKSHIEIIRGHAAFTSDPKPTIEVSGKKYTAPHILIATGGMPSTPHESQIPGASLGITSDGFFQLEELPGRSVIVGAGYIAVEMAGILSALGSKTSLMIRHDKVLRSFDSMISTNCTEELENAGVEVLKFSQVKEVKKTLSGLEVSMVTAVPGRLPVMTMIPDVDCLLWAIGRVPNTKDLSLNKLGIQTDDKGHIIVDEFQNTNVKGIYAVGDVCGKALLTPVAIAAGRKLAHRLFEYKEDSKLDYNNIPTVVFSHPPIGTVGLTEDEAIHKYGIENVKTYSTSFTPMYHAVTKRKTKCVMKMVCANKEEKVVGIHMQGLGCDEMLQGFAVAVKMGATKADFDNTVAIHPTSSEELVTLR
The experiment in a line: In vitro inhibition against human glutathione reductase; IA denotes inactive.

Experiment [3] has as its system Trypanosoma cruzi. Description: In vitro inhibitory dose against epimastigote form of Trypanosoma cruzi Brener strain. The following applies: read-out: ID50 (the source's name).
Experiment [4] deals with Trypanosoma cruzi. Description: In vitro inhibitory dose against epimastigote form of Trypanosoma cruzi Tulahuen strain. Particulars: read-out: ID50 (the source's name).

Structures are written as SMILES. The source made the active and inactive calls. No cut-off for these calls is given here.

Consider `Cc1ccc2c(c1)[n+]([O-])c1cc(C#N)c(N)cc1[n+]2[O-]`, for which the PGI in the experiment with Trypanosoma cruzi [1] is 5%. In the experiment on Trypanosoma cruzi [1], `COc1ccc2[nH]c3nnc(N)c-3nc2c1` displayed a PGI of 0%. On to `Cc1cc2c(cc1C)[n+]([O-])c1cc(N3CCN(c4ccc([N+](=O)[O-])cc4)CC3)c(C#N)cc1[n+]2[O-]`, for which, in the experiment with Trypanosoma cruzi [1], the PGI is 0%. The same measure, in the same setting: under `COC(=O)N/N=C/c1ccc2c(c1)[n+]([O-])c1cc(C#N)c(N)cc1[n+]2[O-]` stands 19%; under `Cc1cc2c(cc1C)[n+]([O-])c1cc(C(=O)N3CCN(c4ccc([N+](=O)[O-])cc4)CC3)c(C)cc1[n+]2[O-]`, 1%. For `Cc1ccc2nc3cc(N)c(C#N)cc3nc2c1`, the PGI with Trypanosoma cruzi [1] was 0%. On to `CCN(CC)CCCC(C)Nc1c2ccc(Cl)cc2nc2ccc(OC)cc12` (stereo not drawn), for which, in experiment [2], the inhibition entry is “inactive”. Regarding `Cc1cc2c(cc1C(=O)N1CCN(c3ccccc3)CC1)[n+]([O-])c1cc(Cl)c(Cl)cc1[n+]2[O-]`, the PGI with Trypanosoma cruzi [1] was 47%. The same measure, in the same setting: under `CN(C)CCCNc1cc2c(cc1C#N)[n+]([O-])c1cc(Cl)ccc1[n+]2[O-]` stands 16%.

For `N#Cc1cc2nc3cc(Cl)ccc3nc2cc1Cl`, the IC50 in the experiment with Trypanosoma cruzi [3] was 3 µM; in the experiment with Trypanosoma cruzi [4] it was 4.5 µM. This compound also showed a PGI with Trypanosoma cruzi [1] of 100%. `COc1ccccc1N1CCN(c2cc3c(cc2C#N)[n+]([O-])c2cc(Cl)ccc2[n+]3[O-])CC1`: the IC50 worked out at 9.5 µM in the experiment with Trypanosoma cruzi [3] and 6.5 µM in the experiment on Trypanosoma cruzi [4]. The compound also gave a PGI in the experiment with Trypanosoma cruzi [1] of 100%. For the compound `COC(=O)N/N=C/c1ccc2c(c1)[n+]([O-])c1cc(C)c(C)cc1[n+]2[O-]`, in the experiment with Trypanosoma cruzi [1], the PGI is reported as 28%. Consider `CC1CS(=O)(=O)CCN1/N=C/c1ccc([N+](=O)[O-])o1` (stereo not drawn) [NIFURTIMOX], for which the results for the IC50 in the experiment on Trypanosoma cruzi [3] and in the experiment with Trypanosoma cruzi [4] were 3.4 µM and 7.7 µM, respectively. As to `N#Cc1cc2c(cc1N)[n+]([O-])c1ccccc1[n+]2[O-]`, the PGI in the experiment with Trypanosoma cruzi [1] is reported as 25%. Compound `Cc1ccc(Nc2cc3c(cc2C#N)[n+]([O-])c2cc(Cl)ccc2[n+]3[O-])cc1` had a PGI in the experiment on Trypanosoma cruzi [1] of 19%. Take `N#Cc1cc2c(cc1N)[n+]([O-])c1ccc(/C=N/NC(=O)NCCc3ccccc3)cc1[n+]2[O-]`: the PGI in the experiment on Trypanosoma cruzi [1] is listed as 11%. On the same count and under the same terms, under `c1ccc(CNc2nc(NCc3ccccc3)c3nc4ccccc4nc3n2)cc1` stands 31%. As to `Cc1cc2c(cc1C(=O)c1ccccc1)[n+]([O-])c1cc(Cl)c(Cl)cc1[n+]2[O-]`, the IC50 in the experiment with Trypanosoma cruzi [3] is 12.5 µM; with Trypanosoma cruzi [4], 11.8 µM. The compound also displayed a PGI with Trypanosoma cruzi [1] of 91%.

As for `N#Cc1cc2c(cc1Nc1ccccc1)[n+]([O-])c1ccc(Cl)cc1[n+]2[O-]`, the PGI in the experiment on Trypanosoma cruzi [1] turned out to be 63%.

On to `COc1ccc2c(c1)[n+]([O-])c1cc(C#N)c(N3CCN(c4ccc([N+](=O)[O-])cc4)CC3)cc1[n+]2[O-]`, for which the PGI in the experiment with Trypanosoma cruzi [1] is 19%. `N#Cc1cc2c(cc1N1CCN(c3ccc([N+](=O)[O-])cc3)CC1)[n+]([O-])c1ccc(Cl)cc1[n+]2[O-]` showed a PGI in the experiment with Trypanosoma cruzi [1] of 3%. Still for that read-out and setting: under `CC(=O)c1cc2c(cc1C)[n+]([O-])c1cc(Cl)ccc1[n+]2[O-]` stands 51%.

For the compound `N#Cc1cc2c(cc1N)[n+]([O-])c1cc(Cl)c(Cl)cc1[n+]2[O-]`, in the experiment with Trypanosoma cruzi [1], the PGI is 25%. In turn, `Nc1nc(N)c2nc3ccccc3nc2n1` yielded a PGI in the experiment on Trypanosoma cruzi [1] of 0%. Same read-out and setting: then `CC(=O)c1cc2c(cc1C)[n+]([O-])c1cc(F)ccc1[n+]2[O-]`, with 22%.

As to `N#Cc1cc2c(cc1N1CCN(c3cccc(C(F)(F)F)c3)CC1)[n+]([O-])c1ccc(Cl)cc1[n+]2[O-]`, the IC50 came to 7 µM with Trypanosoma cruzi [3] and 6.7 µM in the experiment with Trypanosoma cruzi [4]. Moreover, the PGI with Trypanosoma cruzi [1] is 94%. As for `Cc1cc2c(cc1Sc1ccccc1)[n+]([O-])c1cc(Cl)c(Cl)cc1[n+]2[O-]`, the values for the IC50 in the experiment with Trypanosoma cruzi [3] and in the experiment on Trypanosoma cruzi [4] were 4.5 µM and 6.5 µM, respectively. The same compound gave a PGI in the experiment on Trypanosoma cruzi [1] of 93%. For `COCCNC(=O)N/N=C/c1ccc2c(c1)[n+]([O-])c1cc(C#N)c(N)cc1[n+]2[O-]`, in the experiment with Trypanosoma cruzi [1], the PGI was determined as 20%.

`COc1cc2c(cc1Cl)[n+]([O-])c1cc(N3CCN(c4ccc([N+](=O)[O-])cc4)CC3)c(C#N)cc1[n+]2[O-]` yielded a PGI in the experiment with Trypanosoma cruzi [1] of 6%. Turning to `Cc1cc2c(cc1C)[n+]([O-])c1cc(C(=O)N3CCN(c4ccccc4)CC3)c(C)cc1[n+]2[O-]`, the PGI with Trypanosoma cruzi [1] was determined as 0%. `Cc1cc2nc3cc(Cl)c(C#N)cc3nc2cc1C`: the IC50 is 3 µM with Trypanosoma cruzi [3] and 19.6 µM in the experiment with Trypanosoma cruzi [4]. For the same compound, in the experiment on Trypanosoma cruzi [1], the PGI worked out at 81%.

In the experiment on Trypanosoma cruzi [1], `N#Cc1cc2c(cc1N1CCN(Cc3ccc4c(c3)OCO4)CC1)[n+]([O-])c1ccc(Cl)cc1[n+]2[O-]` displayed a PGI of 33%. The compound `Cc1cc2c(cc1C)[n+]([O-])c1cc(/C=N/NC(=O)NCCc3ccccc3)ccc1[n+]2[O-]` showed a PGI in the experiment on Trypanosoma cruzi [1] of 17%. Consider `COc1ccc2c(c1)[n+]([O-])c1cc(C#N)c(N)cc1[n+]2[O-]`, for which the PGI in the experiment on Trypanosoma cruzi [1] is on record as 25%. Still for that read-out and setting: under `Cc1cc2c(cc1C)[n+]([O-])c1cc(NCCCN(C)C)c(C#N)cc1[n+]2[O-]` stands 1%.

The record behind these values is ChEMBL document CHEMBL1146817, “Quinoxaline N,N'-dioxide derivatives and related compounds as growth inhibitors of Trypanosoma cruzi. Structure-activity relationships” (Bioorg Med Chem Lett, 2004).
